From ChEMBL document CHEMBL4627304, “DNA sequence-specific ligands. XVIII. Synthesis, physico-chemical properties; genetic, virological, and biochemical studies of fluorescent dimeric bisbenzimidazoles DBPA(n)” (Bioorg Med Chem, 2020)
Converted amounts (≈) assume the structure as drawn. The source made the active and inactive calls. The rule behind the calls is not given here.

Key:
[1] = molecular target: Human immunodeficiency virus type 1 integrase (Human immunodeficiency virus 1, UniProt Q7ZJM1); test: Inhibition of recombinant HIV1 integrase expressed in Escherichia coli Rosetta assessed as reduction in 3' end processing activity using [32P]-labelled U5B/U5A DNA as substrate measured after 2 hrs by polyacrylamide gel electrophoresis method
Human immunodeficiency virus type 1 integrase, sequence (Q7ZJM1 whole entry): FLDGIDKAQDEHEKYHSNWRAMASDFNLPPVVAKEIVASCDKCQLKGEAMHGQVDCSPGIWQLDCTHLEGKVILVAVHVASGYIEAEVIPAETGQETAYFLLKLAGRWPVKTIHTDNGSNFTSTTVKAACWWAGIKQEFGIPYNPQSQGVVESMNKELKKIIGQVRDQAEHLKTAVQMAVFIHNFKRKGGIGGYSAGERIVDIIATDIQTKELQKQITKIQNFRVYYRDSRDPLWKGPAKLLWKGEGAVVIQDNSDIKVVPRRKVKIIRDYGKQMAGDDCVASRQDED

Human alphaherpesvirus 1 = test: Antiviral activity against Herpes simplex virus 1 infected in African green monkey vero cells assessed as reduction in plaque formation treated 1 hr post viral infection by plaque reduction assay; format: functional, organism-based; settings: Human alphaherpesvirus 1, Vero
[2] = (§1) Selectivity index, ratio of CC50 for cytotoxicity against African green monkey Vero cells assessed as reduction in cell viability measured after 72 hrs by MTT assay to EC50 for antiviral activity against Herpes simplex virus 1 infected in African green monkey vero cells assessed as reduction in plaque formation treated 1 hr post viral infection; format: toxicity, cell-based; settings: read-out: Ratio CC50/EC50
[3] = as §1, with “Vero” for “vero”, “pretreated with compound for” for “treated”, “followed by” for “post”, “infection at 0.01 PFU/cells for 1 hr by plaque reduction assay” for “infection”; format: toxicity, cell-based; settings: read-out: Ratio CC50/EC50
Aliivibrio logei [4] = test: Binding affinity to Aliivibrio logei H-NS dependent Pr1 promoter assessed as luminescence intensity measured after 3 hrs by bioluminescence assay relative to control
Aliivibrio fischeri [5] = test: Binding affinity to Aliivibrio fischeri H-NS dependent Prf promoter assessed as luminescence intensity measured after 3 hrs by bioluminescence assay relative to control
[6] = Solubility of the compound in water; format: physicochemical; settings: buffer
Calf thymus DNA [7] = test: Binding affinity to calf thymus DNA by fluorescence spectra analysis; format: nucleic-acid assay; settings: Bos taurus
Calf thymus DNA [8] = test: Binding affinity to calf thymus DNA assessed as appearance of positive band by cholesteric liquid crystal dispersion-based circular dichroism method; format: nucleic-acid assay; settings: Bos taurus
[9] = molecular target: T1, Transcriptional activator protein LuxR (Aliivibrio fischeri) (UniProt P12746); test: (§2) Inhibition of Aliivibrio fischeri LuxR quorum sensing system expressed in Escherichia coli MG1655 pVFR1 harboring Prf promoter assessed as reduction in LuxR transcriptional activity by measuring Lux gene expression in presence of LuxR protein activator and presence of 10^-6 M AHL by bioluminescence assay relative to control
T1 sequence (whole entry): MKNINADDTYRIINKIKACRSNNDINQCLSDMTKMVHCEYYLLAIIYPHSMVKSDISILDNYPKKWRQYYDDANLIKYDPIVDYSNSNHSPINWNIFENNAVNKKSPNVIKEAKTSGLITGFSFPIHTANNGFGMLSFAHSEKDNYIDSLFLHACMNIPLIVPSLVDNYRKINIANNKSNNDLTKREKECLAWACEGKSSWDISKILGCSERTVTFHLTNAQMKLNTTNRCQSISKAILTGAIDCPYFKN

[10] = Cytotoxicity against human NKE cells assessed as reduction in cell viability by MTT assay; format: cell-based
[11] = Drug penetration in human HCT116 cells nucleus at 200 uM measured after 2 days by fluorescence microscopy; format: ADME, subcellular; settings: hct-116, 48 h
Aliivibrio fischeri [12] = test: Binding affinity to Aliivibrio fischeri H-NS dependent PluxC promoter assessed as luminescence intensity measured after 3 hrs by bioluminescence assay relative to control
MCF7 = test: Cytotoxicity against human MCF7 cells assessed as reduction in cell viability by MTT assay; format: cell-based
[13] = molecular target: T1, Transcriptional activator protein LuxR (Aliivibrio fischeri); test: as §2, with “10^-7” for “10^-6”
HCT-116 = test: Cytotoxicity against human HCT116 cells assessed as reduction in cell viability by MTT assay; format: cell-based
[14] = molecular target: T1, Transcriptional activator protein LuxR (Aliivibrio fischeri); test: as §2, with “and absence” for “and presence”, “of” for “of 10^-6 M”
Calf thymus DNA [15] = test: Binding affinity to calf thymus DNA assessed as hyperchromic effect by UV-Vis spectroscopy; format: nucleic-acid assay; settings: Bos taurus
[16] = molecular target: T1, Transcriptional activator protein LuxR (Aliivibrio fischeri); test: as §2, with “10^-8” for “10^-6”
Aliivibrio logei [17] = test: Binding affinity to Aliivibrio logei H-NS dependent Pr2 promoter assessed as luminescence intensity measured after 3 hrs by bioluminescence assay relative to control

| Structure (SMILES) | IC50 [1] | EC50 (Human alphaherpesvirus 1) | selectivity ratio at 72 h [2] | selectivity ratio at 72 h [3] | Flu intensity (Aliivibrio logei [4]) | Flu intensity (Aliivibrio fischeri [5]) | solubility [6] | Activity (Calf thymus DNA [7]) | Activity (Calf thymus DNA [8]) | fold change (FC) [9] | IC50 [10] | Drug uptake [11] | Flu intensity (Aliivibrio fischeri [12]) | IC50 (MCF7) | fold change (FC) [13] | IC50 (HCT-116) | fold change (FC) [14] | Activity (Calf thymus DNA [15]) | fold change (FC) [16] | Flu intensity (Aliivibrio logei [17]) |
| --- | --- | --- | --- | --- | --- | --- | --- | --- | --- | --- | --- | --- | --- | --- | --- | --- | --- | --- | --- | --- |
| CN1CCN(c2ccc3nc(-c4ccc5nc(CNC(=O)CCCCN6CCN(CCCCC(=O)NCc7nc8ccc(-c9nc%10ccc(N%11CCN(C)CC%11)cc%10[nH]9)cc8[nH]7)CC6)[nH]c5c4)[nH]c3c2)CC1 | 3.9 µM | – | – | – | – | – | – | – | – | – | – | – | – | – | – | – | – | – | – | – |
| Nc1nc2c(ncn2COCCO)c(=O)[nH]1 [ACYCLOVIR] | – | 1.2 µg/mL (≈ 5.33 µM) | 916 | 86 | – | – | – | – | – | – | – | – | – | – | – | – | – | – | – | – |
| CN(C)CCCNC(=O)c1ccc2nc(-c3ccc4nc(CNC(=O)CCN5CCN(CCC(=O)NCc6nc7ccc(-c8nc9ccc(C(=O)NCCCN(C)C)cc9[nH]8)cc7[nH]6)CC5)[nH]c4c3)[nH]c2c1 | 2.6 µM | 30 µg/mL (≈ 30.7 µM) | 18 | 703 | 210000 | 122000 | Soluble | Active | Active | 8 | > 300 µM | Active | 110000 | > 300 µM | 3 | > 300 µM | 27 | Active | 1 | 150000 |
| CN1CCN(c2ccc3nc(-c4ccc5nc(CNC(=O)CCN6CCN(CCC(=O)NCc7nc8ccc(-c9nc%10ccc(N%11CCN(C)CC%11)cc%10[nH]9)cc8[nH]7)CC6)[nH]c5c4)[nH]c3c2)CC1 | 7 µM | – | – | – | – | – | – | – | – | – | – | – | – | – | – | – | – | – | – | – |
| CN(C)CCCNC(=O)c1ccc2nc(-c3ccc4nc(CNC(=O)CN5CCN(CC(=O)NCc6nc7ccc(-c8nc9ccc(C(=O)NCCCN(C)C)cc9[nH]8)cc7[nH]6)CC5)[nH]c4c3)[nH]c2c1 | 2.1 µM | 16.7 µg/mL (≈ 17.6 µM) | 34 | 5750 | 1700 | 4100 | Soluble | – | – | – | > 200 µM | Active | 38000 | > 200 µM | – | > 200 µM | – | – | – | 18000 |
| CN(C)CCCNC(=O)c1ccc2nc(-c3ccc4nc(CNC(=O)CCCCN5CCN(CCCCC(=O)NCc6nc7ccc(-c8nc9ccc(C(=O)NCCCN(C)C)cc9[nH]8)cc7[nH]6)CC5)[nH]c4c3)[nH]c2c1 | 1.1 µM | 31 µg/mL (≈ 30 µM) | 34 | – | 1000 | 4300 | Soluble | – | Active | – | > 500 µM | Active | 3500 | > 500 µM | – | > 500 µM | – | Active | – | 1800 |
| CN1CCN(c2ccc3nc(-c4ccc5nc(CNC(=O)CCCN6CCN(CCCC(=O)NCc7nc8ccc(-c9nc%10ccc(N%11CCN(C)CC%11)cc%10[nH]9)cc8[nH]7)CC6)[nH]c5c4)[nH]c3c2)CC1 | 9.9 µM | – | – | – | – | – | – | – | – | – | – | – | – | – | – | – | – | – | – | – |
| CN1CCN(c2ccc3nc(-c4ccc5nc(CNC(=O)CN6CCN(CC(=O)NCc7nc8ccc(-c9nc%10ccc(N%11CCN(C)CC%11)cc%10[nH]9)cc8[nH]7)CC6)[nH]c5c4)[nH]c3c2)CC1 | > 15 µM | – | – | – | – | – | – | – | – | – | – | – | – | – | – | – | – | – | – | – |
| CN(C)CCCNC(=O)c1ccc2nc(-c3ccc4nc(CN)[nH]c4c3)[nH]c2c1 | – | 27 µg/mL (≈ 69 µM) | 35 | 11 | – | – | – | – | – | – | – | – | – | – | – | – | – | – | – | – |
| CN(C)CCCNC(=O)c1ccc2nc(-c3ccc4nc(CNC(=O)CCCN5CCN(CCCC(=O)NCc6nc7ccc(-c8nc9ccc(C(=O)NCCCN(C)C)cc9[nH]8)cc7[nH]6)CC5)[nH]c4c3)[nH]c2c1 | 1.8 µM | 15 µg/mL (≈ 14.9 µM) | 70 | 95 | 3300 | 4400 | Soluble | Active | – | – | > 500 µM | Active | 17000 | > 500 µM | – | > 500 µM | – | – | – | 50000 |
